# Paper PMC6017062, “Probing the Inhibitor versus Chaperone Properties of sp^2-Iminosugars towards Human β-Glucocerebrosidase: A Picomolar Chaperone for Gaucher Disease” (Molecules : A Journal of Synthetic Chemistry and Natural …, 2018)
# How the values were obtained:
# [1] = target: T1, α-mannosidase from Jack bean (α-Manase) (Canavalia ensiformis, UniProt C0HJB3); assay: Commercial glycosidase inhibition: α-mannosidase from Jack bean (α-Manase); assay type: biochemical; conditions: mean ± SD, three determinations; competitive; n.i. = no inhibition detected at 1 mM
# T1 construct: purchased
# T1 sequence (C0HJB3 1-981): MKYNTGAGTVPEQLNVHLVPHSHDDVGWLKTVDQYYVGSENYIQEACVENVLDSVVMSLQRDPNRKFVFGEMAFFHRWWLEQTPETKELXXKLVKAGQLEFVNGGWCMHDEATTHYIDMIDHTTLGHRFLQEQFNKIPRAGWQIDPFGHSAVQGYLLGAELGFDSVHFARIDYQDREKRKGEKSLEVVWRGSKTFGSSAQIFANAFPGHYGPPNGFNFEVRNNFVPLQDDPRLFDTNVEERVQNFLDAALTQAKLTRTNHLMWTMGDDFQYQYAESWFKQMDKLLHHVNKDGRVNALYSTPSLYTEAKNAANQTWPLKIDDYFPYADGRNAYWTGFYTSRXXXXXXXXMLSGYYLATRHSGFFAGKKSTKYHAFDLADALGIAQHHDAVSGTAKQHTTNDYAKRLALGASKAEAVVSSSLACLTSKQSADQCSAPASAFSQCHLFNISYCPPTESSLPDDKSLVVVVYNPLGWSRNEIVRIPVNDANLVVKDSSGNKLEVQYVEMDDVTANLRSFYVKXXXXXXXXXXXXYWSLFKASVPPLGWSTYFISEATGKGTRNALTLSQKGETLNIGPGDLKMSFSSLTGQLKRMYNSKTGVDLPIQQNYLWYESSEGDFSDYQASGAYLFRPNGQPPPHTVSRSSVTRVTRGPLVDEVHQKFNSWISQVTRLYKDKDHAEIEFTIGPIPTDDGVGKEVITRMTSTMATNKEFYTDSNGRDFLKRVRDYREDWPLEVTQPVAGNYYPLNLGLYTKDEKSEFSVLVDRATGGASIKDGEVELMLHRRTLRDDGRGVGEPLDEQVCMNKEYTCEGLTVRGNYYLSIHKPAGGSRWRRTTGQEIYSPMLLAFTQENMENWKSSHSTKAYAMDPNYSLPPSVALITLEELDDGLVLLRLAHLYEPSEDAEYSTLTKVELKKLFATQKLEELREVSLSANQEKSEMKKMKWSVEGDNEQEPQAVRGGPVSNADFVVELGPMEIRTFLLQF
# Text: (§1) We first evaluated the inhibitory properties of the new nonreducing mono- and bicyclic sp^2-iminosugars 4–15 against a panel of commercial glycosidases that included the α-glucosidases maltase (yeast maltase; α-Glcase1) and isomaltase (α-Glcase2) from Saccharomyces cerevisiae and amyloglucosidase (α-Glcase3) from Aspergillus niger, the β-glucosidases from almonds (β-Glcase1) and bovine liver (β-Glcase2), the α-galactosidase from green coffee beans (α-Galase), the β-galactosidase from Escherichia coli (β-Galase), and the α-mannosidase from Jack bean (α-Manase).
# (§2) Inhibition constant (Ki) values were determined by spectrophotometrically measuring the residual hydrolytic activities of the glycosidases against the respective o- (for β-galactosidase from E. coli) or p-nitrophenyl α- or β-D-glycopyranoside (for other glycosidases) in the presence of the iminosugars. Each assay was performed in phosphate buffer or phosphate-citrate buffer (for α- or β-mannosidase and amyloglucosidase) at the optimal pH for the enzymes. The reactions were initiated by addition of the enzyme to a solution of the substrate in the absence or presence of various inhibitor concentrations. The mixture was incubated for 10–30 min at 37 °C or 55 °C (for amyloglucosidase) and the reaction was quenched by addition of 1 M Na2CO3. Reaction times were appropriate to obtain 10–20% conversion of the substrate in order to achieve linear rates. The absorbance of the resulting mixture was determined at 405 nm. Approximate value of Ki was determined from the slope of Dixon plots using a fixed concentration of substrate (around the Km value for the different glycosidases) and various concentrations of inhibitor. Full Ki determinations and enzyme inhibition mode were determined from the slope of Lineweaver–Burk plots and double reciprocal analysis.
# [2] = target: T2, α-glucosidase maltase (yeast maltase; α-Glcase1) (Saccharomyces cerevisiae, UniProt P53341); assay: Commercial glycosidase inhibition: maltase (yeast maltase; α-Glcase1); assay type: biochemical; conditions: mean ± SD, three determinations; competitive; n.i. = no inhibition detected at 1 mM
# T2 construct: purchased
# T2 sequence (P53341 whole entry): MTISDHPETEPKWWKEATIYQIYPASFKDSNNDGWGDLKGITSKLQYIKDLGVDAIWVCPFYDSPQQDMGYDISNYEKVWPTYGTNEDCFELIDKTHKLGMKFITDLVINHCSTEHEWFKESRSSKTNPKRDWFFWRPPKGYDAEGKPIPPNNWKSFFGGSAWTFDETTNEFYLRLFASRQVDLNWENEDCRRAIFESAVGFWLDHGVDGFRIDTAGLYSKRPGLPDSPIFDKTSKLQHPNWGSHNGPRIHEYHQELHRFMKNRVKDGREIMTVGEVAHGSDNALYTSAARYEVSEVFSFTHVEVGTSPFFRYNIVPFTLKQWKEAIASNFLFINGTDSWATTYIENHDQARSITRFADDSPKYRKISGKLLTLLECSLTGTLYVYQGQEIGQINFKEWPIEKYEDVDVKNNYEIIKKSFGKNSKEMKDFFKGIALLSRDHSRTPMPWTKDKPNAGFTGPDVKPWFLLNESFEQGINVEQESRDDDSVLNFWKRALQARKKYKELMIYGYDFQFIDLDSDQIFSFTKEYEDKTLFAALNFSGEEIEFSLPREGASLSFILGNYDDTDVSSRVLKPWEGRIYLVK
# Text: as §1, §2
# [3] = target: β-glucosidase from almonds (β-Glcase1); assay: Commercial glycosidase inhibition: β-glucosidase from almonds (β-Glcase1); assay type: biochemical; conditions: mean ± SD, three determinations; competitive; n.i. = no inhibition detected at 1 mM
# Text: as §1, §2
# [4] = pKa determination; assay type: physicochemical
# [5] = target: T3, α-galactosidase from green coffee beans (α-Galase) (Coffea arabica, UniProt Q42656); assay: Commercial glycosidase inhibition: α-galactosidase from green coffee beans (α-Galase); assay type: biochemical; conditions: mean ± SD, three determinations; competitive; n.i. = no inhibition detected at 1 mM
# T3 construct: purchased
# T3 sequence (Q42656 16-378): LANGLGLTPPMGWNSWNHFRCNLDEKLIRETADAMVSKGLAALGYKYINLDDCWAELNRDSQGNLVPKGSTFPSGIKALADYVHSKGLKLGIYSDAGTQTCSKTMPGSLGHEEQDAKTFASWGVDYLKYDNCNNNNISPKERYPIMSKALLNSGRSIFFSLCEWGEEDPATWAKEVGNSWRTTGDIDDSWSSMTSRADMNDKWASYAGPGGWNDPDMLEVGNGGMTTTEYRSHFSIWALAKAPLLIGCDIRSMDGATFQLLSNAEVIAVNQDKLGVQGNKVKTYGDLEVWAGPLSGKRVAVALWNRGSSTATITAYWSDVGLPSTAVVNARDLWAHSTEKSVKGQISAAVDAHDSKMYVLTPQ
# Text: as §1, §2
smiles,measurement,setting,value
"CCCCCCCCN=C1SCC2C(O)C(O)C(O)CN12 (stereo not drawn) [Compound 4, 1-Deoxy-6-thio-5-N,6-S-(N′-octyliminomethylidene)nojirimycin]",Ki α-Manase,[1],n.i.
same,Ki α-Glcase1,[2],n.i. ^1
same,Ki,[3],45 nM
same,pKa,[4],8.3
same,Ki α-Galase,[5],n.i.
